From patent publication US20170152245A1 (National Taiwan University, priority 2015, published 2017)

Test system: human platelet suspension
Test: U46619-induced platelet aggregation in human platelet suspension
Assay type: cell-based
Conditions: Homo sapiens, Platelet, U46619-induced aggregation, platelet suspension; read-out: P.S(U46619) IC50
Method: Human platelet suspension (PS) was prepared according to the method described previously. Briefly, blood sample, freshly obtained from healthy volunteers who had taken no medications during the preceding 2 weeks, was treated with acid citrate/dextrose (ACD) in a volume ratio of 9:1. After centrifugation at 120 g, 25° C. for 9 min, platelet-rich plasma was transferred into another plastic tube and incubated with heparin (6.4 U/ml) as well as prostaglandin E1 (1 μM). Platelets were spun down by centrifugation at 500 g, 25° C. for 8 min and subsequently washed two times with Tyrode solution (NaH2PO4 0.4 mM; NaCl 136.9 mM; KCl […]; NaHCO3 11.9 mM; CaCl2 2 mM; MgCl2 2.1 mM; glucose 11.1 mM; BSA 3.5 mg/ml; pH 7.35-7.4). The washed platelets were finally suspended in Tyrode's solution and the platelet count was adjusted to 3.75×10^8 platelets/ml. For platelet-rich plasma (PRP) preparation, whole blood was anticoagulated with 1/10 vol of sodium citrate (3.8%, w/v) and centrifuged at 150 g, 25° C. for 9 min.
Platelet aggregation was measured turbidimetrically with a Lumi-aggregometer (Payton Scientific) at 37° C. under stirring condition (900 rpm). Platelet suspensions were prewarmed to 37° C. for 2 min in a silicone-treated glass cuvette. Nstpbp5185 was added 3 min before the addition of platelet-aggregation inducers. The extent of platelet aggregation was determined by recording the increase of light transmission relative to that of control (maximal aggregation, as 100%) for 6 min after the addition of inducer. The final volume and platelet count for measuring platelet aggregation were 500 μl and 3×10^8/ml, respectively.

| Compound | IC50 [µM] |
| --- | --- |
| Cc1ccc(-c2nc3cc(Cl)ccc3n2Cc2ccccc2C)o1 [Example 53a, 5-chloro-1-(2-methylbenzyl)-2-(5-methyl-2-furyl)benzimidazole] | 6.01 |
| Cc1ccc(-c2nc3ccc(Cl)cc3n2Cc2ccccc2C)o1 [Example 53b, 6-chloro-1-(2-methylbenzyl)-2-(5-methyl-2-furyl)benzimidazole] | 3.2 |
| Cc1ccc(-c2nc3cc(Cl)c(Cl)cc3[nH]2)o1 [Example 54, 5,6-dichloro-2-(5-methyl-2-furyl)benzimidazole] | 5.13 |
| Cc1ccc(-c2nc3cc(Cl)c(Cl)cc3n2Cc2ccccc2)o1 [Example 54a, 1-Benzyl-5,6-dichloro-2-(5-methyl-2-furyl)benzimidazole] | 6.98 |
| Cc1ccc(-c2nc3cc(Cl)c(Cl)cc3n2Cc2ccc([N+](=O)[O-])cc2)o1 [Example 55, 5,6-dichloro-1-(4-nitrobenzyl)-2-(5-methyl-2-furyl)benzimidazole] | > 50 |
| Cc1ccc(-c2nc3cc(Cl)c(Cl)cc3n2Cc2cccc([N+](=O)[O-])c2)o1 [Example 56, 5,6-dichloro-1-(3-nitrobenzyl)-2-(5-methyl-2-furyl)benzimidazole] | 27 |
| Cc1ccc(-c2nc3cc(Cl)c(Cl)cc3n2Cc2ccccc2[N+](=O)[O-])o1 [Example 57, 5,6-dichloro-1-(2-nitrobenzyl)-2-(5-methyl-2-furyl)benzimidazole] | > 50 |
| Cc1ccc(-c2nc3cc(Cl)c(Cl)cc3n2Cc2ccc(Cl)cc2)o1 [Example 58, 5,6-Dichloro-1-(4-chlorobenzyl)-2-(5-methyl-2-furyl)benzimidazole] | 9.56 |
| Cc1ccc(-c2nc3cc(Cl)c(Cl)cc3n2Cc2cccc(Cl)c2)o1 [Example 59, 5,6-dichloro-1-(3-chlorobenzyl)-2-(5-methyl-2-furyl)benzimidazole] | 3.74 |
| Cc1ccc(-c2nc3cc(Cl)c(Cl)cc3n2Cc2ccccc2Cl)o1 [Example 60, 5,6-dichloro-1-(2-chlorobenzyl)-2-(5-methyl-2-furyl)benzimidazole] | 42.9 |
| COc1ccc(Cn2c(-c3ccc(C)o3)nc3cc(Cl)c(Cl)cc32)cc1 [Example 61, 5,6-dichloro-1-(4-methoxybenzyl)-2-(5-methyl-2-furyl)benzimidazole] | 26.9 |
| COc1cccc(Cn2c(-c3ccc(C)o3)nc3cc(Cl)c(Cl)cc32)c1 [Example 62, 5,6-Dichloro-1-(3-methoxybenzyl)-2-(5-methyl-2-furyl)benzimidazole] | 8.88 |
| Cc1ccc(-c2nc3cc(Cl)c(Cl)cc3n2Cc2ccc(F)cc2)o1 [Example 63, 5,6-dichloro-1-(4-fluorobenzyl)-2-(5-methyl-2-furyl)benzimidazole] | 2.68 |
| Cc1ccc(-c2nc3cc(Cl)c(Cl)cc3n2Cc2cccc(F)c2)o1 [Example 64, 5,6-dichloro-1-(3-fluorobenzyl)-2-(5-methyl-2-furyl)benzimidazole] | 1.74 |
| Cc1ccc(-c2nc3cc(Cl)c(Cl)cc3n2Cc2ccccc2F)o1 [Example 65, 5,6-dichloro-1-(2-fluorobenzyl)-2-(5-methyl-2-furyl) benzimidazole] | 8.32 |
| Cc1ccc(Cn2c(-c3ccc(C)o3)nc3cc(Cl)c(Cl)cc32)cc1 [Example 66, 5,6-dichloro-1-(4-methylbenzyl)-2-(5-methyl-2-furyl)benzimidazole] | 40.3 |
| Cc1cccc(Cn2c(-c3ccc(C)o3)nc3cc(Cl)c(Cl)cc32)c1 [Example 67, 5,6-dichloro-1-(3-methylbenzyl)-2-(5-methyl-2-furyl)benzimidazole] | 6.52 |
| Cc1ccc(-c2nc3cc(Cl)c(Cl)cc3n2Cc2ccccc2C)o1 [Example 68, 5,6-dichloro-1-(2-methylbenzyl)-2-(5-methyl-2-furyl)benzimidazole] | 5.69 |
| Cc1ccc(-c2nc3ccc(C(=O)c4ccccc4)cc3[nH]2)o1 [Example 69, 6-benzoyl-2-(5-methyl-2-furyl)benzimidazole] | > 50 |
